Experimental data as given in the supplement of paper PMC10307832.

Legend:
Test in all cases: relative viability (nuclei count vs DMSO), 5 days (fraction); higher = more cells survive
[1] = compound: C[C@]12O[C@H](C[C@]1(O)CO)n1c3ccccc3c3c4c(c5c6ccccc6n2c5c31)CNC4=O [Lestaurtinib] + CC(C)C[C@H](NC(=O)[C@H](Cc1ccccc1)NC(=O)c1cnccn1)B(O)O [Bortezomib] (partner 0.002 µM)
How it was run: (§1)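 Medians of duplicate plates are given as relative viability. That measure is the nuclei count in treated wells divided by the count in vehicle wells. Counts were taken on 4× images of lung cancer cell lines in 1536-well plates, 5 days after pin-tool dosing the day after seeding with one drug alone or a fixed anchor-drug dose plus five library-drug doses (not always all listed) in √10 steps.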

TPCA-1 + Dasatinib = compound: C1=CC(=CC=C1C2=CC(=C(S2)NC(=O)N)C(=O)N)F [TPCA-1] + Cc1nc(Nc2ncc(C(=O)Nc3c(C)cccc3Cl)s2)cc(N2CCN(CCO)CC2)n1 [Dasatinib] (partner 0.075 µM)
How it was run: as §1

[2] = compound: C1/C(=C\C2=CC=CS2)/C(=O)/C(=C/C3=CC=CS3)/C1 + N=C(N)NC(=N)NCCc1ccccc1 [Phenformin] (partner 250 µM)
How it was run: as §1

[3] = compound: C1/C(=C\C2=CC=CS2)/C(=O)/C(=C/C3=CC=CS3)/C1 + C[C@@H](Oc1cc(-c2cnn(C3CCNCC3)c2)cnc1N)c1c(Cl)ccc(F)c1Cl [Crizotinib] (partner 1 µM)
How it was run: as §1

Row | Cell Line | relative viability ([1]; first compound 0.005 µM) | relative viability ([1]; first compound 0.01581 µM) | relative viability ([1]; first compound 0.05 µM) | relative viability ([1]; first compound 0.1581 µM) | relative viability ([1]; first compound 0.5 µM) | relative viability (TPCA-1 + Dasatinib; first compound 0.04 µM) | relative viability (TPCA-1 + Dasatinib; first compound 0.1265 µM) | relative viability (TPCA-1 + Dasatinib; first compound 0.4 µM) | relative viability (TPCA-1 + Dasatinib; first compound 1.265 µM) | relative viability (TPCA-1 + Dasatinib; first compound 4 µM) | relative viability ([2]; first compound 0.2 µM) | relative viability ([2]; first compound 0.6325 µM) | relative viability ([2]; first compound 2 µM) | relative viability ([2]; first compound 6.325 µM) | relative viability ([2]; first compound 20 µM) | relative viability ([3]; first compound 0.2 µM) | relative viability ([3]; first compound 0.6325 µM) | relative viability ([3]; first compound 2 µM) | relative viability ([3]; first compound 6.325 µM) | relative viability ([3]; first compound 20 µM)
1 | 201T | 1.17 | 1.12 | 1.17 | 1.24 | 0.937 | 0.577 | 0.601 | 0.569 | 0.576 | 0.556 | 0.495 | 0.431 | 0.478 | 0.425 | 0.455 | 1.05 | 1.04 | 1.07 | 0.996 | 1.01
2 | A549 |  |  |  |  |  |  |  |  |  |  | 0.208 | 0.196 | 0.154 |  | 0.17 | 0.825 | 0.813 | 0.823 | 0.767 | 0.738
3 | A-427 | 0.98 | 1.05 | 0.835 | 0.446 | 0.212 | 0.752 | 0.621 | 0.795 | 0.745 | 0.454 | 0.346 | 0.417 | 0.273 | 0.292 | 0.278 | 1.06 | 0.888 | 0.946 | 0.813 | 0.955
4 | ABC-1 | 0.352 | 0.332 | 0.292 | 0.308 | 0.2 | 0.485 | 0.493 | 0.614 | 0.495 | 0.381 | 0.234 | 0.253 | 0.247 | 0.219 | 0.211 | 1.05 | 1.21 | 1.25 | 1.01 | 0.92
5 | BEN | 0.74 | 0.998 | 0.637 | 0.74 | 0.328 | 0.294 | 0.283 | 0.335 | 0.391 | 0.267 | 0.268 | 0.293 | 0.285 | 0.214 | 0.257 | 0.941 | 0.947 | 1.02 | 0.861 | 0.706
6 | CAL-12T | 0.806 | 1.27 | 0.888 | 0.794 | 0.618 | 0.361 | 0.486 | 0.571 | 0.304 | 0.154 | 0.651 | 0.672 | 0.562 | 0.585 | 0.574 | 0.839 | 0.912 | 0.673 | 0.362 | 0.596
7 | COR-L23 | 1.21 | 1.07 |  | 0.697 | 0.464 | 0.532 | 0.434 | 0.54 | 0.422 | 0.42 | 0.458 | 0.465 | 0.376 | 0.433 | 0.476 | 0.536 | 0.69 | 0.639 | 0.592 | 0.633
8 | COR-L 105 | 0.893 | 0.665 | 0.706 | 0.521 | 0.253 | 0.307 | 0.361 | 0.345 | 0.225 | 0.204 | 0.526 | 0.491 | 0.499 |  | 0.481 | 0.861 | 1.03 | 0.885 | 0.695 | 0.646
9 | Calu-6 | 1.07 | 0.875 | 0.744 | 0.562 | 0.184 |  |  |  |  |  |  |  |  |  |  | 0.845 | 0.873 | 0.846 | 0.764 | 0.772
10 | ChaGo-K-1 | 0.944 | 1.51 | 0.931 | 0.718 | 0.5 | 0.754 | 0.594 | 0.705 | 0.561 | 0.218 | 0.517 | 0.493 | 0.459 | 0.3 | 0.271 | 1.16 | 1.23 | 1.08 | 1.05 | 0.76
11 | EBC-1 | 0.495 | 0.621 | 0.504 | 0.43 | 0.227 |  |  |  |  |  |  |  |  |  |  | 0.204 | 0.213 | 0.191 | 0.189 | 0.22
12 | EKVX | 1.1 | 1.26 | 0.999 | 1.19 | 0.679 | 0.535 | 0.542 | 0.529 | 0.487 | 0.627 | 0.252 | 0.247 | 0.218 | 0.231 | 0.249 | 1.01 | 0.982 | 0.922 | 0.929 | 0.926
13 | EMC-BAC-2 | 1.1 | 1.11 | 0.942 | 0.678 | 0.279 | 0.364 | 0.352 | 0.368 | 0.46 | 0.343 | 0.549 | 0.513 | 0.558 | 0.521 | 0.521 | 0.789 | 0.792 | 0.751 | 0.59 | 0.695
14 | EPLC-272H | 1.02 | 1.15 | 0.603 | 0.828 | 0.486 | 0.449 | 0.33 | 0.365 | 0.421 | 0.301 | 0.289 | 0.318 | 0.298 | 0.238 | 0.276 | 1 | 0.885 | 1.01 | 0.797 | 0.735
15 | H3255 | 0.773 | 0.982 | 0.648 | 0.903 | 0.351 | 0.421 | 0.352 | 0.431 | 0.305 | 0.301 | 0.377 | 0.324 | 0.352 | 0.34 | 0.309 | 0.847 | 1.06 | 0.793 | 0.8 | 0.845
16 | HARA | 1.21 | 1.33 | 1 | 0.671 | 0.179 | 0.298 | 0.289 | 0.298 | 0.257 | 0.231 | 0.449 | 0.452 | 0.481 | 0.444 | 0.407 | 0.985 | 1.05 | 1.03 | 0.758 | 1.03
17 | HCC-15 | 1.04 | 1.28 | 0.868 | 0.868 | 0.194 | 0.735 | 0.495 | 0.592 | 0.523 | 0.392 | 0.516 | 0.467 | 0.545 | 0.445 | 0.442 | 0.833 | 0.881 | 0.771 | 0.779 | 0.79
